# Measurements taken from publication PMC10366102, “Dose escalation and expansion cohorts in patients with advanced breast cancer in a Phase I study of the CDK7-inhibitor samuraciclib” (Nature Communications, 2023).
# Key:
# [1] = tested on: HR+/HER2− advanced breast cancer patients post-CDK4/6 inhibitor; settings: female, human, in vivo
# Method: In each cohort the dose of fulvestrant was 500 mg every 28 ± 2 days, with an additional 500 mg dose given 14 ± 2 days after the first dose. Cohort 1 tested samuraciclib 240 mg OD continuous dosing. If the DLT stopping criteria were not met, Cohort 2 commenced enrollment at the Module 1A MTD. Patients underwent regular safety monitoring and 8-week scans reported using RECIST V1.1[32].
# As Module 1A was a ‘first time in human’ safety study, initial efficacy was evaluated as a secondary endpoint using the DCR, defined as the percentage of patients with a complete response (CR), PR or stabilization of disease at first on treatment RECIST assessment. To allow for the evaluation of longer-term benefit, Module 1B-1 and Module 2A used the CBR as a secondary endpoint, defined as the percentage of patients with CR or PR or stabilization of disease for at least 24 weeks between enrollment and disease progression or death due to any cause. In addition, the ORR was assessed, defined as the percentage of patients who had at least 1 objective response (CR or PR) prior to any evidence of progression. […] Statistical analyses of PFS using the Kaplan-Meier method were performed on the ITT population - defined as all enrolled patients. AEs were summarized from the Safety Population - defined as all patients who received at least 1 dose of samuraciclib - using the MedDRA system organ class (SOC), preferred term (PT), and graded according to CTCAE V5.0 (Supplementary Information).
# DLTs recorded in the first cycle. Patients were considered evaluable if they completed the first cycle or
# discontinued therapy in the first cycle due to a DLT. Patients in a cohort were replaced if they could not
# complete the first cycle unless this was due to a DLT.
# Part A was planned to have two dose cohorts with up to 6 evaluable patients to be enrolled per
# cohort. In each cohort, the dose of fulvestrant was fixed at the standard dose of 500mg given at intervals
# of 28±2 days with an additional 500mg dose given 14±2 days after the first dose. Fulvestrant was
# administered as two consecutive slow intramuscular (IM) injections (1-2 minutes) of 250mg in 5 mL,
# one in each buttock (gluteal area). Pre-and peri-menopausal women also had to have commenced
# treatment with a luteinizing hormone-releasing hormone (LHRH) agonist at least 4 weeks prior to first
# dose of study medication. Patients continued to receive treatment in 28-day cycles until they no longer
# gained clinical benefit or they discontinued treatment.
# Cohort 1 tested samuraciclib at 240mg OD as monotherapy, which is approximately 33% lower than the
# current maximum tolerated dose (MTD) of 360mg. If no DLT was recorded in Cycle 1 in the first 3
# evaluable patients, Cohort 2 commenced enrolment at 360mg of samuraciclib OD.
# DLT in Cohort 1, a further 3 evaluable patients were assessed.
# started enrolment. If ≥ 2/3 or ≥ 2/6 patients in Cohort 1 experienced a DLT, dose escalation was
# stopped. In Cohort 2, if 0/3 or 1/3 evaluable patients experienced a DLT, the cohort was expanded to 6
# patients. If ≥ 2/3 or ≥ 2/6 patients experienced a DLT, the Cohort 1 dosing regimen (samuraciclib at
# 240mg and fulvestrant at 500mg) was determined as the preliminary Phase 2 dosing regimen. If < 2/6
# considered the recommended Phase 2 regimen.
# The SRC was convened to decide whether and when to open the second samuraciclib dosing cohort and
# which dosing regimen to advance to randomized Phase 2 testing. If the SRC considered safety and/or
# patients who had at least one response of complete response (CR) or partial response (PR) prior to any
# evidence of progression. The percentage change in tumor size was derived at each tumor imaging
# assessment by the best percentage change from baseline in the sum of the diameters of target lesions. In
# Module 1A initial efficacy was evaluated using the disease control rate (DCR) defined as percentage of
# participants with a complete response (CR) or partial response (PR) or stabilization of disease at first on
# treatment RECIST assessment.
# [2] = tested on: Han Wistar rats; settings: rats 15 or 60 mg/kg/day and beagle dogs 20 mg/kg/day, 7 days; ref IB; cited from earlier work
# [3] = tested on: phosphorylation of RNA Pol II, CDK1 and 2; design: method as in ref IB; settings: in vitro and in vivo, tumour and normal cells; ref IB; cited from earlier work
# [4] = tested on: Ames test strains; design: method as in ref IB; settings: up to the lower limit of toxicity; ref IB; cited from earlier work
# [5] = tested on: peripheral blood mononucleated cells; assay: Antibody validation, flow cytometry of cells treated ex vivo, RNA pol II pSer5; format: cell-based, human
# Method: (§1) SUPPLEMENTARY TABLE 12: ANTIBODIES USED
# (§2) Antibody Application Supplier & Description Dilution/ Validation […]
# (§3) RNA pol II Immunohistoche Abcam Rabbit Immuno- Immunohistochemistry: pSer5 mistry (Fig 3); ab193467 monoclonal histochemistry: Positive nuclear staining Flow cytometry [EPR19015] to 1 in 8000 in normal spleen
# (§4) (Supplementary RNA 0.02 µg/mL samples. Significant
# (§5) Figure 5) polymerase II reduction in staining in CTD repeat Flow cytometry: MCF7 cell line treated
# (§6) YSPTSPS 1 in 100 with samuraciclib. […]
# (§7) intensity of labelling in […]
# (§8) pCDK1/2/ Immunohistoche Abcam Rabbit 1 in 500 Immunohistochemistry:
# (§9) 3 mistry (Fig 3) ab201008 monoclonal 1.2 μg/mL Positive nuclear staining [EPR19546] to in normal tonsil samples.
# (§10) T161) + CDK2 staining in MCF7 cell
# (§11) (phospho T160) line treated with
# (§12) Goat anti- Flow cytometry Abcam Polyclonal goat 1 in 1000 Flow cytometry: No Rabbit IgG (Supplementary ab150077 anti-rabbit IgG 2.0 μg/mL significant binding to H&L Figure 5) H&L peripheral blood
# (§13) AlexaFluor conjugated to mononucleated cells in 488 AlexaFluor 488 absence of primary
# [6] = tested on: MCF7 cell line; assay: Antibody validation, immunohistochemistry of treated cells, pCDK1/2/3; format: cell-based, human; settings: MCF7 cell line treated with samuraciclib
# Method: as §1, §2, §3, §4, §5, §6, §7, §8, §9, §10, §11, §12, §13
# [7] = tested on: Han Wistar (Crl:WI [Han]) rats; settings: cited from earlier work
smiles,measurement,setting,value
"CC(C)c1cnn2c(NCc3ccccc3)cc(NC[C@H]3CCNC[C@@H]3O)nc12 [samuraciclib, Samuraciclib]",Discontinued due to related gastrointestinal AEs,[1],23%
same,Discontinued due to unrelated AEs,[1],5 patients
same,Drug-related: ALT increased,[1],3 (9.7) patients (%)
same,Drug-related: AST increased,[1],4 (12.9) patients (%)
same,Drug-related: Abdominal pain,[1],7 (22.6) patients (%)
same,Drug-related: Abdominal pain (second line so named),[1],4 (12.9) patients (%)
same,Drug-related: Anaemia,[1],2 (6.5) patients (%)
same,Drug-related: Constipation,[1],2 (6.5) patients (%)
same,Drug-related: Decreased appetite,[1],9 (29.0) patients (%)
same,Drug-related: Dehydration,[1],2 (6.5) patients (%)
same,Drug-related: Diarrhoea,[1],28 (90.3) patients (%)
same,Drug-related: Dry mouth,[1],2 (6.5) patients (%)
same,Drug-related: Dry skin,[1],2 (6.5) patients (%)
same,Drug-related: Dysgeusia,[1],4 (12.9) patients (%)
same,Drug-related: Dysphagia,[1],3 (9.7) patients (%)
same,Drug-related: Fatigue,[1],11 (35.5) patients (%)
same,Drug-related: Flatulence,[1],2 (6.5) patients (%)
same,Drug-related: Headache,[1],4 (12.9) patients (%)
same,Drug-related: Mouth ulceration,[1],2 (6.5) patients (%)
same,Drug-related: Mucosal inflammation,[1],2 (6.5) patients (%)
same,Drug-related: Muscular weakness,[1],2 (6.5) patients (%)
same,Drug-related: Nausea,[1],25 (80.6) patients (%)
same,Drug-related: Rash,[1],3 (9.7) patients (%)
same,Drug-related: Stomatitis,[1],2 (6.5) patients (%)
same,Drug-related: Taste disorder,[1],2 (6.5) patients (%)
same,Drug-related: Thrombocytopenia,[1],3 (9.7) patients (%)
same,Drug-related: Vomiting,[1],23 (74.2) patients (%)
same,Drug-related: Weight decreased,[1],2 (6.5) patients (%)
same,Participants with any drug-related TEAE,[1],30 (96.8) patients (%)
same,Reticulocyte numbers,[2],significant decrease
same,"Phosphorylation of RNA Pol II, CDK1 and 2",[3],inhibits the phosphorylation
same,Mutations in five strains Ames test,[4],no mutations
same,RNA pol II pSer5 intensity of labelling,[5],Significant reduction in
same,pCDK1/2/3 staining,[6],Significant reduction in
same,Findings in 4-week oral gavage study,"[7]; 120 mg/kg/day, Han Wistar rats, ref IB",deaths and severe clinical
same,HNSTD (middle dose tested),"[7]; rat, in vivo",60 mg/kg
